{"source": "patent US20070099939A1", "about": "“Fungicidal mixtures for controlling rice pathogens” (priority 2003, published 2007)", "tested_on": "Cochliobolus miyabeanus", "assay": "Activity against brown spot of rice caused by Cochliobolus miyabeanus, protective application", "assay_type": "in vivo", "conditions": "individual active compound, inoculated next day, assessed after six days", "description": "The active compounds, separately or jointly, were prepared as a stock solution with 0.25% by weight of active compound in acetone or DMSO. 1% by weight of the emulsifier Uniperol® EL (wetting agent having emulsifying and dispersing action based on ethoxylated alkylphenols) was added to this solution, and the solution was diluted with water to the desired concentration.\nUse Example—Activity Against Brown Spot of Rice Caused by Cochliobolus Miyabeanus, Protective Application\nLeaves of potted rice seedlings of the cultivar “Tai-Nong 67” were sprayed to runoff point with an aqueous suspension of the concentration of active compound stated below. The next day, the plants were inoculated with an aqueous spore suspension of Cochliobolus miyabeanus. The test plants were then placed in climatized chambers at 22-24° C. and 95-99% relative atmospheric humidity for six days. The extent of the development of the infection on the leaves was then determined visually.\nEvaluation was carried out by determining the percentage of infected plants. These percentages were converted into efficacies.\nThe efficacy (E) is calculated as follows using Abbot's formula: E=(1−α/β)·100 • α corresponds to the fungicidal infection of the treated plants in % and • β corresponds to the fungicidal infection of the untreated (control) plants in %\nAn efficacy of 0 means that the infection level of the treated plants corresponds to that of the untreated control plants; an efficacy of 100 means that the treated plants are not infected.\nThe expected efficacies of mixtures of active compounds are determined using Colby's formula (R.S. Colby, Weeds, 15, 20-22, 1967) and compared with the observed efficacies.\nColby's Formula: E=x+y−x·y/100 • E expected efficacy, expressed in % of the untreated control, when using the mixture of the active compounds A and B at the concentrations a and b • x efficacy, expressed in % of the untreated control, when using the active compound A at the concentration a • y efficacy, expressed in % of the untreated control, when using the active compound B at the concentration b"}
{"molecule": "CC1CCN(c2c(-c3c(F)cccc3Cl)c(Cl)nc3ncnn23)CC1", "note": "[A]", "values": [{"measurement": "Efficacy in % of the untreated control", "setting": "4 ppm in the spray liquor", "result": 44, "unit": "%"}]}
{"molecule": "C[C@H](Nc1c(-c2c(F)cc(F)cc2F)c(Cl)nc2ncnn12)C(F)(F)F", "note": "[B]", "values": [{"measurement": "Efficacy in % of the untreated control", "setting": "4 ppm in the spray liquor", "result": 44, "unit": "%"}]}
{"molecule": "CC1CCN(c2c(-c3c(F)cc(F)cc3F)c(Cl)nc3ncnn23)CC1", "note": "[I, 5-chloro-7-(4-methylpiperidin-1-yl)-6-(2,4,6-trifluorophenyl)-[1,2,4]triazolo[1,5-a]pyrimidine]", "values": [{"measurement": "Efficacy in % of the untreated control", "setting": "4 ppm in the spray liquor", "result": 33, "unit": "%"}]}
{"molecule": "CC1=C(C(=O)Nc2ccccc2)SCCO1", "note": "[II (carboxin), N-phenyl-2-methyl-5,6-dihydro-[1,4]oxathiine-3-carboxamide]", "values": [{"measurement": "Efficacy in % of the untreated control", "setting": "1 ppm in the spray liquor", "result": 0, "unit": "%"}, {"measurement": "Efficacy in % of the untreated control", "setting": "4 ppm in the spray liquor", "result": 0, "unit": "%"}]}
